Measured values: patent US4377594A, “Derivative of 4-(N-(substituted-benzylidene)amino-methyl cyclohexane-1-carboxylic acid” (Kureha Kagaku Kogyo Kabushiki Kaisha, priority 1980, dated 1983)
Counter-ions that a name gives are not always drawn. Like-named read-outs stand apart in the source and are kept apart here.

Key:
female JCL-ICR mouse = assay: acute toxicity, peroral administration; settings: mouse, in vivo
From the text: (§1) (3) Examination method for acute toxicity
(§2) Acute toxicity was examined by administering perorally an aqueous solution of each Specimen to female JCL-ICR mouse of 5 to 6 weeks after birth.
(§3) ^(3) Median lethal dose (LD50), that is, dose for getting 50% of
(§4) mice to death, in unit of mg per one kilogram of body weight of mouse.

[1] = test system: Rat's polynuclear leukocyte migration; assay: inhibitory effect on polynuclear leukocyte migration (Boyden method); assay type: cell-based; settings: read-out: Inhibition rate of polynuclear leukocyte migration
Description: (2) Examination method for inhibitory effect on polynuclear leukocyte migration
Rat's polynuclear leukocyte migration was examined by Boyden method (refer to Japanese J. Clin. Med., 27(9), 172 (1969)) as follows; a mixture of 10 parts by volume of culture filtrate of E. coli and one part by volume of serum was incubated at 37° C. for one hour and diluted into 5-times volume with physiological salt solution, and the mixture obtained was used as an attractant. After preincubating polynuclear leukocyte suspension with each specimen for 10 min, migration of polynuclear leukocytes was examined.
^(2) The average value of inhibition rate (%) of polynuclear leukocyt
migration at each concentration (μM) of each Specimen.

[2] = test system: Rabbit platelet rich plasma (PRP); platelet aggregation; assay: inhibitory effect on platelet aggregation (induced by sodium arachidonate); assay type: cell-based; settings: rabbit PRP 300,000/μl; sodium arachidonate tested at 400 μM; preincubated at 37° C. for 5 min
Description: (1) Examination method for inhibitory effect on platelet aggregation
Rabbit platelet rich plasma (PRP) was used for Aggregation Tests. PRP was prepared by centrifugation of blood collected from the ear vein of Rabbit and diluted into number-concentration 300,000/μl with platelet poor plasma. Platelet aggregation was induced by Sodium Arachidonate and monitored (measured) with a four channel platelet aggregation Tracer PAT-4A (Niko Bioscience Co., Japan). Aggregation Tracer tube contaning 230 μl PRP was preincubated at 37° C. for 5 min with each Specimen.
^(1) The minimum concentration (μM) of each Specimen for inhibitin
completely (100%) the platelet aggregating effect by sodium arachidonate

[3] = acute toxicity, peroral administration; settings: in vivo, po; peroral, aqueous solution, female JCL-ICR mouse 5 to 6 weeks
From the text: as §1, §2, §3, §4

[4] = 1 μM, average value, preincubation 10 min, rat
[5] = 10 μM, average value, preincubation 10 min, rat
[6] = 100 μM, average value, preincubation 10 min, rat
[7] = 1000 μM, average value, preincubation 10 min, rat

| SMILES | acute toxicity (in words) (female JCL-ICR mouse) | inhibition at 1 µM [1, 4] [%] | inhibition at 10 µM [1, 5] [%] | inhibition at 100 µM [1, 6] [%] | inhibition at 1000 µM [1, 7] [%] | Platelet aggregation ID100 (minimum concentration for inhibiting completely (100%) the platelet aggregating effect by sodium arachidonate) [2] [µM] | LD50 [3] [mg/kg] | inhibition at 1 µM ([1]; Rattus norvegicus) [%] | inhibition at 10 µM ([1]; Rattus norvegicus) [%] | inhibition at 100 µM ([1]; Rattus norvegicus) [%] | inhibition at 1000 µM ([1]; Rattus norvegicus) [%] |
| --- | --- | --- | --- | --- | --- | --- | --- | --- | --- | --- | --- |
| COc1ccc(C=NC[C@H]2CC[C@H](C(=O)O)CC2)cc1OC [Example 7 sodium salt, sodium salt of trans-4-[N-(3',4'-dimethoxybenzylidene)aminomethyl]cyclohexane-1-carboxylic acid] | low acute toxicity | – | – | – | – | – | – | – | – | – | – |
| COc1cc(C=NC[C@H]2CC[C@H](C(=O)O)CC2)cc(OC)c1OC [Example 8 sodium salt, trans-4-[N-(3',4',5'-trimethoxybenzylidene)aminomethyl]cyclohexane-1-carboxylic acid] | low acute toxicity | – | – | – | – | – | – | – | – | – | – |
| COc1cc(C=NC[C@H]2CC[C@H](C(=O)O)CC2)ccc1O [Example 9 sodium salt, trans-4-[N-(3'-methoxy-4'-hydroxybenzylidene)aminomethyl]cyclohexane-1-carboxylic acid] | low acute toxicity | – | – | – | – | – | – | – | – | – | – |
| O=C(O)[C@H]1CC[C@H](CN=Cc2ccc(O)cc2O)CC1 [III] | – | 0 | 12 | 42 | 92 | > 1000 | > 3000 | – | – | – | – |
| O=C(O)[C@H]1CC[C@H](CN=Cc2cccc(O)c2O)CC1 [II] | – | 0 | 25 | 66 | 100 | – | > 3000 | – | – | – | – |
| COc1ccccc1C=NC[C@H]1CC[C@H](C(=O)O)CC1 [IV] | – | 0 | 0 | 27 | 94 | – | > 3000 | – | – | – | – |
| O=C(O)[C@H]1CC[C@H](CN=Cc2ccccc2O)CC1 [I] | – | 0 | 0 | 39 | 93 | > 1000 | ~2000 | – | – | – | – |
| CN1CCCN(C(c2ccccc2)c2ccc(Cl)cc2)CC1 (stereo not drawn) [VI] | – | – | – | – | – | > 1000 | 350 | 15 | 48 | 80 | 100 |
| COc1ccc2c(c1)c(CC(=O)O)c(C)n2C(=O)c1ccc(Cl)cc1 [V] | – | – | – | – | – | – | 30 | 0 | 0 | 25 | 79 |
